Target: T1, ATM protein immunoprecipitated from HeLa cell nuclear extract (Homo sapiens, UniProt Q13315)
T1 construct: ATM protein was immunoprecipitated from HeLa cell nuclear extract; endogenous in cells; host or cells: HeLa cell nuclear extract (immunoprecipitated with rabbit polyclonal anti-ATM antiserum)
Assay: In vitro ATM inhibition assay (phosphorylation of GSTp53N66 on serine 15, chemiluminescent detection); note: tested normally from 100 µM down to 0.1 nM
Assay type: biochemical
Conditions: read-out: IC50 values (the concentration at which 50% of the enzyme activity is inhibited), ATM inhibition
Procedure: In order to assess the inhibitory action of the compounds against ATM in vitro, the following assay was used to determine IC50 values. ATM protein was immunoprecipitated from HeLa cell nuclear extract using rabbit polyclonal anti-sera raised to the C-terminal ˜500 amino-acid residues of the human ATM protein. […] 10 μl of immunoprecipitated ATM in Buffer C (50 mM Hepes, pH 7.4, 6 mM MgCl2, 150 mM NaCl, 0.1 mM sodium orthovanadate, 4 mM MnCl2, 0.1 mM dithiothreitol, 10% glycerol) was added to 32.5 μl of buffer C containing 1 μg of the ATM substrate GSTp53N66 in a V-bottomed 96 well polypropylene plate. The GSTp53N66 substrate is the amino terminal 66 amino acid residues of human wild type p53 fused to glutathione S-transferase. […] Varying concentrations of inhibitor were then added. […] After 10 minutes of incubation at 37° C., the reactions were initiated by the addition of 5 μl of 500 μM Na-ATP. After 1 hour with shaking at 37° C., 150 μl of phosphate buffered saline (PBS) was added to the reaction and the plate centrifuged at 1500 rpm for 10 minutes. 5 μl of the reaction was then transferred to a 96 well opaque white plate containing 45 μl of PBS to allow the GSTp53N66 substrate to bind to the plate wells. The plate was covered and incubated at room temperature for 1 hour with shaking before discarding the contents. The plate wells were washed twice by the addition of PBS prior to the addition of 3% (w/v) bovine serum albumin (BSA) in PBS. The plate was incubated at room temperature for 1 hour with shaking before discarding the contents and washing twice with PBS. To the wells, 50 μl of a 1:10,000 dilution of primary phosphoserine-15 antibody (Cell Signaling Technology, #9284L) in 3% BSA/PBS was added to detect the phosphorylation event on the serine 15 residue of p53 elicited by the ATM kinase. […] The wells were then washed four times with PBS before the addition of chemiluminescence reagent (NEN Renaissance, NEL105). The plate was then shaken briefly, covered with a transparent plate seal and transferred to a TopCount NXT for chemiluminescent counting. Counts per second, following a one second counting time, were recorded for each reaction.
The enzyme activity for each compound is then calculated using the following equation:
[formula] Results In vitro ATM assays
Compounds were assayed for ATM inhibition activity using the method described above. […] These are determined over a range of different concentrations, normally from 100 μM down to 0.1 nM. Such IC50 values are used as comparative values to identify increased compound potencies.

T1 sequence (Q13315 whole entry): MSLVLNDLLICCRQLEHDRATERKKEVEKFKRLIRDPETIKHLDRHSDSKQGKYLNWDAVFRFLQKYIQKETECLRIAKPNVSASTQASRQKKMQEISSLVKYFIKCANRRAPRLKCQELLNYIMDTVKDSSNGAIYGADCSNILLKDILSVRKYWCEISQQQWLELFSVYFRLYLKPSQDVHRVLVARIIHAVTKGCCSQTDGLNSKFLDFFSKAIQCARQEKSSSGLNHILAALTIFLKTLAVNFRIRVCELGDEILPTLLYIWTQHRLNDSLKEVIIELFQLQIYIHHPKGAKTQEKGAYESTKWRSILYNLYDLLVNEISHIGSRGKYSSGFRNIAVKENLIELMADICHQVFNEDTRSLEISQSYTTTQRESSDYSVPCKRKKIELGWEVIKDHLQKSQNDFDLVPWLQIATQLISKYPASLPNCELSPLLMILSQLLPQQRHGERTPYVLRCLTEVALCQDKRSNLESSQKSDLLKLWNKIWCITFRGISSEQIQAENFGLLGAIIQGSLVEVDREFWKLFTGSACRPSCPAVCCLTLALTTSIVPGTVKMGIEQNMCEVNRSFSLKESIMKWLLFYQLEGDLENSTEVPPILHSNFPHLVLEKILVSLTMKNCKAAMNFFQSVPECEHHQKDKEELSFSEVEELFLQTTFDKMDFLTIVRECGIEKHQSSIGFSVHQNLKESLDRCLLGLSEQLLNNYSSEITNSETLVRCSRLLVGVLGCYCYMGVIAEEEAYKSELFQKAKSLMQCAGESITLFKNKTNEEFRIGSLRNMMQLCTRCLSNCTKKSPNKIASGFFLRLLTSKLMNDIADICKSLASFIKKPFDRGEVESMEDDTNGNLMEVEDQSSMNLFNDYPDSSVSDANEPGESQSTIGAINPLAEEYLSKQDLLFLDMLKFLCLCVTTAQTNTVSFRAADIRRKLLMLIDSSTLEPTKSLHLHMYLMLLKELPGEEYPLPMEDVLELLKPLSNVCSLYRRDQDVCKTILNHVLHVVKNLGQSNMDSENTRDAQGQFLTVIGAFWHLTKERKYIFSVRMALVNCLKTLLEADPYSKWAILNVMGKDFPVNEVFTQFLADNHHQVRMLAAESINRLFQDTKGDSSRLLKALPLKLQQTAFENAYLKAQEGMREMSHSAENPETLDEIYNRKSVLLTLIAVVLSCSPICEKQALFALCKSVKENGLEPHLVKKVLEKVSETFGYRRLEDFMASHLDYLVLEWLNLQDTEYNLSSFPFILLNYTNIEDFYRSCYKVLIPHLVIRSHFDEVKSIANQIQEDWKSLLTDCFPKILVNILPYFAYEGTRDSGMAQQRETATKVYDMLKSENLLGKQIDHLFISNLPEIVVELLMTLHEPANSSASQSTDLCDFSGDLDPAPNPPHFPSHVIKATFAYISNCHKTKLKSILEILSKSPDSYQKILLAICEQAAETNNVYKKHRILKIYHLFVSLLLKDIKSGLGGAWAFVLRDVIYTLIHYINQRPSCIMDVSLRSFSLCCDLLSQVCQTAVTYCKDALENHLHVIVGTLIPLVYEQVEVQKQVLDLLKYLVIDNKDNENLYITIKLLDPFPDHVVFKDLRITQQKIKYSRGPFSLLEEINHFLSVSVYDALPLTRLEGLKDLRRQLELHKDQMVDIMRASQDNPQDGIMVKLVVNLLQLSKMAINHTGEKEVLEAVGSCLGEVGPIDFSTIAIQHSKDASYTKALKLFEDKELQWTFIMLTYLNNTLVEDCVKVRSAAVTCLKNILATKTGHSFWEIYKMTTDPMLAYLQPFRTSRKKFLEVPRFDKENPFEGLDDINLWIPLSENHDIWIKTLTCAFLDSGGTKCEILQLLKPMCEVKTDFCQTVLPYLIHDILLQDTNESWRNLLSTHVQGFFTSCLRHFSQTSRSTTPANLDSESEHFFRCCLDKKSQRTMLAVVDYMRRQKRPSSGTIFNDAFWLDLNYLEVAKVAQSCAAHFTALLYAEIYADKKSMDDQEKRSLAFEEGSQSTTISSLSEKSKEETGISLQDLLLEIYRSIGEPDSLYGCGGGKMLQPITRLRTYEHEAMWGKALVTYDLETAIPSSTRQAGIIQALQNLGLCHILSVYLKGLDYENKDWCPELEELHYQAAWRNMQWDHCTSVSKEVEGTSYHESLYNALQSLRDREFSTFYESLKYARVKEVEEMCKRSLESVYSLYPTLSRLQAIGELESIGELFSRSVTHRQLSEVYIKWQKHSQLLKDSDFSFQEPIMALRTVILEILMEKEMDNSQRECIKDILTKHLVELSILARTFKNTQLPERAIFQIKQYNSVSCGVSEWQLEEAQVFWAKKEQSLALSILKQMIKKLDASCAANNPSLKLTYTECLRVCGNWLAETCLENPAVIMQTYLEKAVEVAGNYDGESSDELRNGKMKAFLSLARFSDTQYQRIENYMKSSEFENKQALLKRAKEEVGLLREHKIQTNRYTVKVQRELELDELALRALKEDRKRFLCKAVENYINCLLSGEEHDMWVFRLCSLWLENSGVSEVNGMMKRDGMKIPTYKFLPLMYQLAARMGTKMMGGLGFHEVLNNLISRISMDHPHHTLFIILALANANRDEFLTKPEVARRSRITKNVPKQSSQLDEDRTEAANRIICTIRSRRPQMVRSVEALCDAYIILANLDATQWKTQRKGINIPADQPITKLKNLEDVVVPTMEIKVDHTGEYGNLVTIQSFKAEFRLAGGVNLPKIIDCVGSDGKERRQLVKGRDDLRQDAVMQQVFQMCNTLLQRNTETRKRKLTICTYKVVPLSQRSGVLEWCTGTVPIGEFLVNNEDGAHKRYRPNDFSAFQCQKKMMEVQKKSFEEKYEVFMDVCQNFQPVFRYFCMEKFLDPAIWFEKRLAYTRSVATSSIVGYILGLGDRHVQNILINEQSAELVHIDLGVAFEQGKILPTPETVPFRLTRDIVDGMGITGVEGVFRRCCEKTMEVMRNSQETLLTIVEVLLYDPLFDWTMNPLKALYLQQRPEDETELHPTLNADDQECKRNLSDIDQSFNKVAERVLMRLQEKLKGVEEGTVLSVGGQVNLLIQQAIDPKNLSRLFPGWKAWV

Row | Structure (SMILES) | IC50 [nM]
1 | CN1CCN(C(=O)c2ccc3c(c2)Sc2cccc(-c4cc(=O)cc(N5CCOCC5)o4)c2S3)CC1 [Compound 6] | < 200
2 | O=C(c1ccc2c(c1)Sc1cccc(-c3cc(=O)cc(N4CCOCC4)o3)c1S2)N1CCN(c2ccccn2)CC1 [Compound 8] | < 200
3 | O=C(c1ccc2c(c1)Sc1cccc(-c3cc(=O)cc(N4CCOCC4)o3)c1S2)N1CCN(c2ccncc2)CC1 [Compound 9] | < 200
4 | CC(=O)N1CCN(C(=O)c2ccc3c(c2)Sc2cccc(-c4cc(=O)cc(N5CCOCC5)o4)c2S3)CC1 [Compound 11] | < 200
5 | O=C(c1ccc2c(c1)Sc1cccc(-c3cc(=O)cc(N4CCOCC4)o3)c1S2)N1CCN(c2ncccn2)CC1 [Compound 13] | < 200
6 | CC(C)NC(=O)CN1CCN(C(=O)c2ccc3c(c2)Sc2cccc(-c4cc(=O)cc(N5CCOCC5)o4)c2S3)CC1 [Compound 14] | < 200
7 | O=C(c1ccc2c(c1)Sc1cccc(-c3cc(=O)cc(N4CCOCC4)o3)c1S2)N1CCN(c2ccccc2F)CC1 [Compound 15] | < 200
8 | CC(C)(C)OC(=O)N1CCN(C(=O)c2ccc3c(c2)Sc2cccc(-c4cc(=O)cc(N5CCOCC5)o4)c2S3)CC1 [Compound 16] | < 200
9 | COCCN1CCN(C(=O)c2ccc3c(c2)Sc2cccc(-c4cc(=O)cc(N5CCOCC5)o4)c2S3)CC1 [Compound 17] | < 200
10 | O=C(c1ccc2c(c1)Sc1cccc(-c3cc(=O)cc(N4CCOCC4)o3)c1S2)N1CCN(C(=O)c2ccco2)CC1 [Compound 18] | < 200
11 | O=C(c1ccc2c(c1)Sc1cccc(-c3cc(=O)cc(N4CCOCC4)o3)c1S2)N1CCNCC1 [Compound 19] | < 200
12 | Nc1ccc2c(c1)Sc1cccc(-c3cc(=O)cc(N4CCOCC4)o3)c1S2 [Compound 21, 2-(7-Amino-thianthren-1-yl)-6-morpholin-4-yl-pyran-4-one] | < 200
13 | CC(=O)Nc1ccc2c(c1)Sc1cccc(-c3cc(=O)cc(N4CCOCC4)o3)c1S2 [Compound 22] | < 200
14 | O=C(Nc1ccc2c(c1)Sc1cccc(-c3cc(=O)cc(N4CCOCC4)o3)c1S2)C1CC1 [Compound 24] | < 200
15 | O=C(Nc1ccc2c(c1)Sc1cccc(-c3cc(=O)cc(N4CCOCC4)o3)c1S2)c1ccc2c(c1)OCO2 [Compound 25] | < 200
16 | COC(=O)CCCC(=O)Nc1ccc2c(c1)Sc1cccc(-c3cc(=O)cc(N4CCOCC4)o3)c1S2 [Compound 26] | < 200

Row | Structure (SMILES) | IC50 [nM]
17 | N#Cc1ccc(C(=O)Nc2ccc3c(c2)Sc2cccc(-c4cc(=O)cc(N5CCOCC5)o4)c2S3)cc1 [Compound 27] | < 200
18 | O=C(Nc1ccc2c(c1)Sc1cccc(-c3cc(=O)cc(N4CCOCC4)o3)c1S2)c1cccnc1 [Compound 28] | < 200
19 | O=C(Nc1ccc2c(c1)Sc1cccc(-c3cc(=O)cc(N4CCOCC4)o3)c1S2)c1ccco1 [Compound 29] | < 200
20 | O=C(Nc1ccc2c(c1)Sc1cccc(-c3cc(=O)cc(N4CCOCC4)o3)c1S2)c1ccncc1 [Compound 30] | < 200
21 | COc1ccccc1C(=O)Nc1ccc2c(c1)Sc1cccc(-c3cc(=O)cc(N4CCOCC4)o3)c1S2 [Compound 31] | < 200
22 | O=C(Nc1ccc2c(c1)Sc1cccc(-c3cc(=O)cc(N4CCOCC4)o3)c1S2)c1cccs1 [Compound 32] | < 200
23 | O=C(Cc1cccs1)Nc1ccc2c(c1)Sc1cccc(-c3cc(=O)cc(N4CCOCC4)o3)c1S2 [Compound 33] | < 200
24 | O=C(Nc1ccc2c(c1)Sc1cccc(-c3cc(=O)cc(N4CCOCC4)o3)c1S2)C1CCC1 [Compound 34] | < 200
25 | Cc1noc(C)c1C(=O)Nc1ccc2c(c1)Sc1cccc(-c3cc(=O)cc(N4CCOCC4)o3)c1S2 [Compound 35] | < 200
26 | COC(=O)C(=O)Nc1ccc2c(c1)Sc1cccc(-c3cc(=O)cc(N4CCOCC4)o3)c1S2 [Compound 36] | < 200
27 | Cn1nc(O)cc1C(=O)Nc1ccc2c(c1)Sc1cccc(-c3cc(=O)cc(N4CCOCC4)o3)c1S2 [Compound 37] | < 200
28 | CC(=O)N1CCC(C(=O)Nc2ccc3c(c2)Sc2cccc(-c4cc(=O)cc(N5CCOCC5)o4)c2S3)CC1 [Compound 38] | < 200
29 | CC(=O)Oc1ccccc1C(=O)Nc1ccc2c(c1)Sc1cccc(-c3cc(=O)cc(N4CCOCC4)o3)c1S2 [Compound 39] | < 200
30 | COc1cc(C(=O)Nc2ccc3c(c2)Sc2cccc(-c4cc(=O)cc(N5CCOCC5)o4)c2S3)cc(OC)c1OC [Compound 40] | < 200
31 | COC(=O)CCC(=O)Nc1ccc2c(c1)Sc1cccc(-c3cc(=O)cc(N4CCOCC4)o3)c1S2 [Compound 41] | < 200

The next lines start with the values.

Row | IC50 [nM] | Structure (SMILES)
32 | < 200 | CC(=O)OCC(=O)Nc1ccc2c(c1)Sc1cccc(-c3cc(=O)cc(N4CCOCC4)o3)c1S2 [Compound 42]
33 | < 200 | CC(=O)OC(C(=O)Nc1ccc2c(c1)Sc1cccc(-c3cc(=O)cc(N4CCOCC4)o3)c1S2)c1ccccc1 (stereo not shown) [Compound 43]
34 | < 200 | O=C(Nc1ccc2c(c1)Sc1cccc(-c3cc(=O)cc(N4CCOCC4)o3)c1S2)c1ccc2nsnc2c1 [Compound 45]
35 | < 200 | O=C(Nc1ccc2c(c1)Sc1cccc(-c3cc(=O)cc(N4CCOCC4)o3)c1S2)c1csc(-c2cccs2)n1 [Compound 46]
36 | < 200 | COCCOCC(=O)Nc1ccc2c(c1)Sc1cccc(-c3cc(=O)cc(N4CCOCC4)o3)c1S2 [Compound 48]
37 | < 200 | O=C(CN1CCOCC1)Nc1ccc2c(c1)Sc1cccc(-c3cc(=O)cc(N4CCOCC4)o3)c1S2 [Compound 51]
38 | < 200 | O=C(CN1CCCCC1)Nc1ccc2c(c1)Sc1cccc(-c3cc(=O)cc(N4CCOCC4)o3)c1S2 [Compound 52]
39 | < 200 | O=C(CN1CCNCC1)Nc1ccc2c(c1)Sc1cccc(-c3cc(=O)cc(N4CCOCC4)o3)c1S2 [Compound 53]
40 | < 200 | CN1CCN(CC(=O)Nc2ccc3c(c2)Sc2cccc(-c4cc(=O)cc(N5CCOCC5)o4)c2S3)CC1 [Compound 54]
41 | < 200 | O=C(CN(CCO)CCO)Nc1ccc2c(c1)Sc1cccc(-c3cc(=O)cc(N4CCOCC4)o3)c1S2 [Compound 55]
42 | < 200 | COCCN(CCOC)CC(=O)Nc1ccc2c(c1)Sc1cccc(-c3cc(=O)cc(N4CCOCC4)o3)c1S2 [Compound 56]
43 | < 200 | O=C(CNCCO)Nc1ccc2c(c1)Sc1cccc(-c3cc(=O)cc(N4CCOCC4)o3)c1S2 [Compound 57]
44 | < 200 | NCCNCC(=O)Nc1ccc2c(c1)Sc1cccc(-c3cc(=O)cc(N4CCOCC4)o3)c1S2 [Compound 58]
45 | < 200 | O=C(CN1CCCC1)Nc1ccc2c(c1)Sc1cccc(-c3cc(=O)cc(N4CCOCC4)o3)c1S2 [Compound 59]
46 | < 200 | CN1CCCN(CC(=O)Nc2ccc3c(c2)Sc2cccc(-c4cc(=O)cc(N5CCOCC5)o4)c2S3)CC1 [Compound 60]
47 | < 200 | O=C(CN1CCCNCC1)Nc1ccc2c(c1)Sc1cccc(-c3cc(=O)cc(N4CCOCC4)o3)c1S2 [Compound 61]
48 | < 200 | O=C(CN1CCCCCC1)Nc1ccc2c(c1)Sc1cccc(-c3cc(=O)cc(N4CCOCC4)o3)c1S2 [Compound 62]
49 | < 200 | O=C(CNCCCN1CCOCC1)Nc1ccc2c(c1)Sc1cccc(-c3cc(=O)cc(N4CCOCC4)o3)c1S2 [Compound 63]
50 | < 200 | COc1ccc(CNCC(=O)Nc2ccc3c(c2)Sc2cccc(-c4cc(=O)cc(N5CCOCC5)o4)c2S3)cc1 [Compound 64]
51 | < 200 | O=C(CSc1ncn[nH]1)Nc1ccc2c(c1)Sc1cccc(-c3cc(=O)cc(N4CCOCC4)o3)c1S2 [Compound 65]
52 | < 200 | O=C(CNCC1CCCO1)Nc1ccc2c(c1)Sc1cccc(-c3cc(=O)cc(N4CCOCC4)o3)c1S2 (stereo not shown) [Compound 68]
53 | < 200 | CN(C)CC(=O)Nc1ccc2c(c1)Sc1cccc(-c3cc(=O)cc(N4CCOCC4)o3)c1S2 [Compound 69]
54 | < 200 | O=C(CNCc1ccncc1)Nc1ccc2c(c1)Sc1cccc(-c3cc(=O)cc(N4CCOCC4)o3)c1S2 [Compound 71]
55 | < 200 | CCN(CC(=O)Nc1ccc2c(c1)Sc1cccc(-c3cc(=O)cc(N4CCOCC4)o3)c1S2)Cc1ccncc1 [Compound 72]
56 | < 200 | CN(C)CCN(C)CC(=O)Nc1ccc2c(c1)Sc1cccc(-c3cc(=O)cc(N4CCOCC4)o3)c1S2 [Compound 73]
57 | < 200 | CC(=O)N1CCN(CC(=O)Nc2ccc3c(c2)Sc2cccc(-c4cc(=O)cc(N5CCOCC5)o4)c2S3)CC1 [Compound 77]
58 | < 200 | COCCN1CCN(CC(=O)Nc2ccc3c(c2)Sc2cccc(-c4cc(=O)cc(N5CCOCC5)o4)c2S3)CC1 [Compound 78]

Reference: patent US7429660B2, “ATM inhibitors” (Kudos Pharmaceuticals Limited, priority 2003, dated 2008)
